Consider seven compounds from patent US20140121216A1, “INDOLEAMINE DERIVATIVES FOR THE TREATMENT OF CENTRAL NERVOUS SYSTEM DISEASES” (Adamed Sp. z o.o., priority 2011, published 2014).

Assay [1] deals with T1, 5-HT1A (h), human recombinant (CHO cells) (Homo sapiens, UniProt P08908).
T1 construct: expressed in transfected cells; host or cells: CHO cells
T1 sequence (P08908 1-422): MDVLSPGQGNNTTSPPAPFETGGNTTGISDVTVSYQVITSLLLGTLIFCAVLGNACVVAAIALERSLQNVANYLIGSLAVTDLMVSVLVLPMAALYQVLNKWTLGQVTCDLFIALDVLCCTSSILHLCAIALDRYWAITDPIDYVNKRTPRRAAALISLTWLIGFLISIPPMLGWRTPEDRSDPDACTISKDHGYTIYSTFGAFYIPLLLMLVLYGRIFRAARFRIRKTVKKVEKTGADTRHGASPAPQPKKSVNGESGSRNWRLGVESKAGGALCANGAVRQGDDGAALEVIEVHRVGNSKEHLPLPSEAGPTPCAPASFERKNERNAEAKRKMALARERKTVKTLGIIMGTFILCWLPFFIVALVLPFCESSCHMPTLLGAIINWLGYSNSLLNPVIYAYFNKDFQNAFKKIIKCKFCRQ
The experiment in a line: Cellular functional assay 5-HT1A (h) antagonism. The assay is classed as cell-based. The conditions noted are these: compound 1×10^−6 M; stimulus 8-OH-DPAT 10 nM. The procedure:
(§1) The results are expressed as a percent of control specific agonist response ((measured specific response/control specific agonist response)×100) obtained in the presence of tested compound.
(§2) The EC50 values (concentration producing a half-maximal specific response) and IC50 values (concentration causing a half-maximal inhibition of the control specific agonist response) were determined by non-linear regression analysis of the concentration-response curves generated with mean replicate values using Hill equation curve fitting (Y=D+[(A−D)/(1+(C/C50)nH)], where Y=specific response, D=minimum specific response, A=maximum specific response, C=compound concentration, and C50=EC50 or IC50, and nH=slope factor).
(§3) For the antagonists, the apparent dissociation constants (Kb) were calculated using the modified Cheng Prusoff equation (Kb=IC50/(1+(A/EC50A)), where A=concentration of reference agonist in the assay, and EC50A=EC50 value of the reference agonist).

The target of assay [2] is T2, D4.4 receptor, human recombinant (CHO cells) (Homo sapiens, UniProt P21917).
T2 construct: expressed in transfected cells; host or cells: CHO cells
T2 sequence (P21917 1-419): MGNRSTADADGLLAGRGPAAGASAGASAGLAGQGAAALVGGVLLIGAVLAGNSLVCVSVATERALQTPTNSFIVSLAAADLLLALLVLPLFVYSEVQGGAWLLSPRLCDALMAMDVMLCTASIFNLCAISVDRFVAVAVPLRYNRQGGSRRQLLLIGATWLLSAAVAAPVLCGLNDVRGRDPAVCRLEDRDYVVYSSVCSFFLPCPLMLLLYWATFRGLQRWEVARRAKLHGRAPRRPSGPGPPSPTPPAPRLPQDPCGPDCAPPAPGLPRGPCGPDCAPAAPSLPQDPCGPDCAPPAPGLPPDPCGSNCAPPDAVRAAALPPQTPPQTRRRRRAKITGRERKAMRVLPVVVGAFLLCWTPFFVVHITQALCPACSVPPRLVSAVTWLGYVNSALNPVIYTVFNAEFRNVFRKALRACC
The experiment in a line: Binding assay, dopaminergic D4.4 receptor ([3H]methylspiperone). The conditions noted are these: compound 1×10^−6 M. The procedure: (§4) Moreover, ability of the compounds of the invention to block potassium channel hERG was tested.
(§5) The specific ligand binding to the receptors is defined as the difference between the total binding and the non-specific binding determined in the presence of an excess of unlabelled ligand.
(§6) The inhibition constants (Ki) were calculated using the Cheng Prusoff equation (Ki=IC50/(1+(L/KD)), where L=concentration of radioligand in the assay, and KD=affinity of the radioligand for the receptor). A Scatchard plot is used to determine the Kd. The IC50 values (concentration causing a half-maximal inhibition of control specific binding) and Hill coefficients (nH) were determined by non-linear regression analysis of the competition curves generated with mean replicate values using Hill equation curve fitting (Y=D+[(A−D)/(1+(C/C50)^nH)], where Y=specific binding, D=minimum specific binding, A=maximum specific binding, C=compound concentration, C50=IC50, and nH=slope factor). This analysis was performed using a software developed at Cerep (Hill software) and validated by comparison with data generated by the commercial software SigmaPlot® 4.0 for Windows® (©1997 by SPSS Inc.).
Experimental conditions for tests are given in Table 1, the results of tests for so representative compounds are given in Table 2a and 2b (receptors D2 and D3) and in Table 3 (receptors D4).

The target in assay [3] is T3, D2S (h), human recombinant (HEK-293 cells) (Homo sapiens, UniProt P14416).
T3 construct: expressed in transfected cells; host or cells: HEK-293 cells
T3 sequence (P14416 1-414 isoform P14416-2): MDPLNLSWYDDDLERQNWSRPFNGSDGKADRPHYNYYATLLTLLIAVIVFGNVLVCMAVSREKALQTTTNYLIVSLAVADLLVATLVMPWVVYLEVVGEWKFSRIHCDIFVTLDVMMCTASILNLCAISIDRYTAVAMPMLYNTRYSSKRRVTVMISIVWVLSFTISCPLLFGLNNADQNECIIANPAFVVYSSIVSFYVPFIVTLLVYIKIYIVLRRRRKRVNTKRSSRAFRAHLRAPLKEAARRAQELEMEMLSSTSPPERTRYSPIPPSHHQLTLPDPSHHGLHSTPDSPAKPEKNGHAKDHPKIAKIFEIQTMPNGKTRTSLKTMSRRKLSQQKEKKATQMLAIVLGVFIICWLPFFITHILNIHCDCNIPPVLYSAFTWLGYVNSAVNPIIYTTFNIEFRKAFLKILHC
The experiment in a line: Cellular functional assay D2S (h) antagonism. The conditions noted are these: HEK293; compound 1×10^−6 M; stimulus dopamine 30 nM; read-out: D2-antag [%]. The assay is classed as cell-based. The procedure: as §1, §2, §3

For assay [4], the target named is T4, α2C adrenergic receptors, human recombinant (CHO cells) (Homo sapiens, UniProt P18825).
T4 construct: expressed in transfected cells; host or cells: CHO cells
T4 sequence (P18825 1-462): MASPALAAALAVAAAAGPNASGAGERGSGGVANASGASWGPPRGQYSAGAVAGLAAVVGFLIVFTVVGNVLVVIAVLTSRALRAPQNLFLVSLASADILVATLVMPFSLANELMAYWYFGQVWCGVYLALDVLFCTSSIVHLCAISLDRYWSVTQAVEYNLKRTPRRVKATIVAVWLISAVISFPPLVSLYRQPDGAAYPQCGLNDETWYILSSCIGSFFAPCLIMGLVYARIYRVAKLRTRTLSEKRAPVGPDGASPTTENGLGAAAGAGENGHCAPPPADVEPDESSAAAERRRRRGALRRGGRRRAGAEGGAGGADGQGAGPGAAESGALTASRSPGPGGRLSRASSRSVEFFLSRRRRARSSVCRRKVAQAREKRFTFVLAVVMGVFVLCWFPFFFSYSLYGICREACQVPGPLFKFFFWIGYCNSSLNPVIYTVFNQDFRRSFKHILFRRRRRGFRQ
The experiment in a line: Binding assay, α2C adrenergic receptor ([3H]RX 821002). The conditions noted are these: for α2C [%] affinity test result: compound 1×10^−6 M; for Ki: read-out: Inhibition constant Ki α2C. The procedure:
as §4, §5, §6
Experimental conditions for tests are given in Table 7, and results of tests for representative compounds are given in Tables 8a and 8b (α1 receptors) and in Tables 9a and 9b (α2C receptors).

The target in assay [5] is T5, 5-HT6 (h), human recombinant (CHO cells) (Homo sapiens, UniProt P50406).
T5 construct: expressed in transfected cells; host or cells: CHO cells
T5 sequence (P50406 whole entry): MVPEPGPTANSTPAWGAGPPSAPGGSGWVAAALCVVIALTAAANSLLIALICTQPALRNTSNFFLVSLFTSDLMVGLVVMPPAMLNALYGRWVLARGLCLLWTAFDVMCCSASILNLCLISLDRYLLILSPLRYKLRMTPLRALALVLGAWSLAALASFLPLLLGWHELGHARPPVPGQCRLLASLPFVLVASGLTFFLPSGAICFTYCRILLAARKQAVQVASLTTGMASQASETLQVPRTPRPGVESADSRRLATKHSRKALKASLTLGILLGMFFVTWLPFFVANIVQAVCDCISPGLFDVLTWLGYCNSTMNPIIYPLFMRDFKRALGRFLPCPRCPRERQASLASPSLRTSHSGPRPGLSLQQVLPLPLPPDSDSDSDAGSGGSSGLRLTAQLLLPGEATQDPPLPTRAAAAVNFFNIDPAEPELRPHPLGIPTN
The experiment in a line: Cellular functional assay 5-HT6 (h) antagonism. The format is cell-based. The following applies: compound 1×10^−6 M, stimulus serotonin 100 nM, read-out: 5-HT6-antag [%]. The procedure:
as §1, §2, §3

Assay [6] deals with T3, D2S (h), human recombinant (HEK-293 cells). The experiment in a line: Cellular functional assay D2S (h) agonism. The assay is classed as cell-based. The conditions noted are these: HEK293; compound 1×10^−6 M; control 3 μM dopamine; read-out: D2-ag [%]. The procedure: as §1, §2, §3
The target in assay [7] is T6, D3 (h), human recombinant (CHO cells) (Homo sapiens, UniProt P35462).
T6 construct: expressed in transfected cells; host or cells: CHO cells
T6 sequence (P35462 whole entry): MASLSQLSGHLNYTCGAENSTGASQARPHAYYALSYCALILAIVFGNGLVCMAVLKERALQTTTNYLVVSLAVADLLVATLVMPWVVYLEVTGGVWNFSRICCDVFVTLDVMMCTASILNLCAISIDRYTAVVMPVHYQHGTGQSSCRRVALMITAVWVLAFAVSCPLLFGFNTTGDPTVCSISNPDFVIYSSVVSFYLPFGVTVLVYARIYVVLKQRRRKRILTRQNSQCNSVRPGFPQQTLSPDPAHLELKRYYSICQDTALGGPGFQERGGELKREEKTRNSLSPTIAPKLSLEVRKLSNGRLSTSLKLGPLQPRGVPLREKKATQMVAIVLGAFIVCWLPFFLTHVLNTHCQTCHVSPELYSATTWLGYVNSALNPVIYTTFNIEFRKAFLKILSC
The experiment in a line: Cellular functional assay D3 (h) agonism. The format is cell-based. The conditions noted are these: compound 1×10^−6 M; control 0.3 μM dopamine. The procedure:
as §1, §2, §3

The Ki is the dissociation constant of the complex between target and ligand, obtained from inhibition or displacement.

Regarding `O=C1CCc2ccc(OCCCN3CCN(c4cccc5c4ccn5Cc4ccccc4)CC3)cc2N1` [Compound 4, 7-[3-[4-(1-Benzylindol-4-yl)piperazin-1-yl]propoxy]-3,4-dihydro-1H-quinolin-2-one], the “5-HT1A-antag [%]” value in assay [1] amounted to 17%. Also, the “D4.4 [%] binding assay result” value in assay [2] is 63%. The inhibition at 1 µM in assay [3] amounted to 89%; in assay [5] it was 73%. Also, the “α2C [%] affinity test result” value in assay [4] is 93%. Further, in assay [6], the activation at 1 µM is 45%. Moreover, the “D3-ag [%]” value in assay [7] was 22%.

As for `O=C1CCc2ccc(OCCCCN3CCN(c4cccc5c4ccn5Cc4ccccc4)CC3)cc2N1` [Compound 5, 7-(4-(4-(1-Benzyl-1H-indol-4-yl)piperazin-1-yl)butoxy)-3,4-dihydroquinolin-2(1H)-one], the “5-HT1A-antag [%]” value in assay [1] was determined as 31%. For the same compound, in assay [2], the “D4.4 [%] binding assay result” value worked out at 40%. The inhibition at 1 µM was determined as 99% in assay [3] and 42% in assay [5]. Also, the “α2C [%] affinity test result” value in assay [4] worked out at 93%. In addition, the activation at 1 µM in assay [6] is 47%. The “D3-ag [%]” value in assay [7] is reported as 22%.

For `O=C1CCc2ccc(OCCCN3CCN(c4cccc5c4ccn5S(=O)(=O)c4ccccc4)CC3)cc2N1` [Compound 23, 7-[3-[4-[1-(Benzensulphonyl)indol-4-yl]piperazin-1-yl]propoxy]-3,4-dihydro-1H-quinolin-2-one], the “5-HT1A-antag [%]” value in assay [1] came to 20%. Moreover, in assay [2], the “D4.4 [%] binding assay result” value is listed as 18%. The inhibition at 1 µM in assay [3] was determined as 55%. Further, in assay [4], the “α2C [%] affinity test result” value was 32% and the Ki is 440 nM. For the same compound, in assay [5], the inhibition at 1 µM is 42%. The activation at 1 µM in assay [6] came to 40%. Further, the “D3-ag [%]” value in assay [7] turned out to be 65%.

For the compound `O=C1CCc2ccc(OCCCCN3CCN(c4cccc5c4ccn5S(=O)(=O)c4ccccc4)CC3)cc2N1` [Compound 24, 7-(4-(4-(1-(Phenylsulphonyl)-1H-indol-4-yl)piperazin-1-yl)butoxy)-3,4-dihydroquinolin-2(1H)-one], in assay [1], the “5-HT1A-antag [%]” value came out at 0%. In assay [2], the “D4.4 [%] binding assay result” value was determined as 42%. For the same compound, the inhibition at 1 µM in assay [3] was determined as 93%. For the same compound, in assay [4], the “α2C [%] affinity test result” value turned out to be 78% and the Ki stood at 150 nM. For the same compound, the inhibition at 1 µM in assay [5] came out at 88.7%. Moreover, the activation at 1 µM in assay [6] amounted to 47%. Also, in assay [7], the “D3-ag [%]” value is reported as 13%.

Regarding `O=C1CCc2ccc(OCCCCN3CCN(c4cccc5c4ccn5Cc4cccc(F)c4)CC3)cc2N1` [Compound 63, 7-[4-[4-[1-[(3-Fluorophenyl)methyl]indol-4-yl]piperazin-1-yl]butoxy]-3,4-dihydro-1H-quinolin-2-one], the “5-HT1A-antag [%]” value in assay [1] was determined as 73%. Besides, in assay [2], the “D4.4 [%] binding assay result” value was 46%. Further, the inhibition at 1 µM in assay [3] turned out to be 108%; in assay [5], 61%. For the same compound, the “α2C [%] affinity test result” value in assay [4] is 100%. For the same compound, the activation at 1 µM in assay [6] is 47%. In assay [7], the “D3-ag [%]” value came out at 20%.

With `O=C1CCc2ccc(OCCCCN3CCN(c4cccc5c4ccn5Cc4cccc(Cl)c4)CC3)cc2N1` [Compound 67, 7-[4-[4-[1-[(3-Chlorophenyl)methyl]indol-4-yl]piperazin-1-yl]butoxy]-3,4-dihydro-1H-quinolin-2-one], the “5-HT1A-antag [%]” value in assay [1] is listed as 56%. For the same compound, the “D4.4 [%] binding assay result” value in assay [2] was found to be 44%. Also, the inhibition at 1 µM in assay [3] came to 103%; in assay [5] it was 53%. The “α2C [%] affinity test result” value in assay [4] worked out at 97%. Further, in assay [6], the activation at 1 µM was 46%. Further, the “D3-ag [%]” value in assay [7] was determined as 11%.

As for `NC(=O)c1ccccc1OCCCN1CCN(c2cccc3c2ccn3S(=O)(=O)c2ccccc2)CC1` [Compound 72, 2-[3-[4-[1-(Benzenesulfonyl)indol-4-yl]piperazin-1-yl]propoxy]-benzamide], the “5-HT1A-antag [%]” value in assay [1] is recorded as 61%. Also, the “D4.4 [%] binding assay result” value in assay [2] was found to be 95%. Moreover, the inhibition at 1 µM was determined as 95% in assay [3] and 103% in assay [5]. Besides, the “α2C [%] affinity test result” value in assay [4] was 74%. Further, the activation at 1 µM in assay [6] came to 34%. Besides, the “D3-ag [%]” value in assay [7] came to 34%.
